{
  "source": "patent US8314113B2",
  "about": "“Substituted dihydroquinazolines II” (Aicuris GmbH & Co. KG, priority 2003, dated 2012)",
  "key": {"[1]": {"assay": "Cytotoxicity on NHDF cells in the anti-HCMV cytopathogenicity test", "assay_type": "cell-based", "details": "NHDF cells (human prepuce fibroblasts), visual assessment, concentration at which no visible cytostatic effects are evident", "description": "(§1) Anti-HCMV (Anti-Human Cytomegalovirus) Cytopathogenicity Tests The test compounds are employed as 50 millimolar (mM) solutions in dimethyl sulphoxide (DMSO). Ganciclovir, Foscarnet and Cidofovir are used as reference compounds. After addition of in each case 2 μl of the 50, 5, 0.5 and 0.05 mM DMSO stock solutions to 98 μl portions of cell culture medium in row […] for duplicate determinations, 1:2 dilutions are carried out with 50 μl portions of medium up to row 11 of the 96-well plate. The wells in rows 1 and 12 each contain 50 μl of medium. Then 150 μl portions of a suspension of 1×10^4 cells (human prepuce fibroblasts [NHDF]) are pipetted into each of the wells (row 1=cell control) and, in rows 2-12, a mixture of HCMV-infected and uninfected NHDF cells (M.O.I.=0.001-0.002), i.e. 1-2 infected cells-per 1000 uninfected cells. Row 12 (without substance) serves as virus control. The final test concentrations are 250-0.0005 μM. The plates are incubated at 37° C./5% CO2 for 6 days, i.e. until all the cells are infected in the virus controls (100% cytopathogenic effect [CPE]). The wells are then fixed and stained by adding a mixture of formalin and Giemsa's dye (30 minutes), washed with double-distilled water and dried in a drying cabinet at 50° C. The plates are then assessed visually using an overhead microscope (Plaque Multiplier from Technomara). The following data can be acquired from the test plates: CC50 (NHDF)=substance concentration in μM at which no visible cytostatic effects on the cells are evident by comparison with the untreated cell control;"}, "HCMV": {"tested_on": "HCMV", "assay": "Anti-HCMV cytopathogenicity test (CPE inhibition)", "assay_type": "cell-based, human cytomegalovirus", "details": "for EC50: read-out: HCMV EC50; for SI HCMV (selectivity index = CC50 (NHDF)/EC50 (HCMV)): ratio CC50 (NHDF)/EC50 (HCMV)", "description": "as §1, with “plates: EC50 (HCMV)=substance” for “plates: CC50 (NHDF)=substance”, “μM” for “μM at”, “which inhibits” for “which no visible cytostatic effects on”, “the CPE (cytopathic effect)” for “the cells are evident”, “by 50% compared” for “by comparison”, “untreated virus” for “untreated cell”"}, "[2]": {"details": "Human betaherpesvirus 5, NHDF, 144 h"}, "[3]": {"details": "Human betaherpesvirus 5, 144 h, HCMV-infected NHDF cells, M.O.I. 0.001-0.002, 6 days, 50% inhibition of CPE"}},
  "note": "Where a name gives a salt, the structure may show the parent alone. Read-outs that look alike come from different tables or passages of the source.",
  "data": [
    {"compound": "COc1ccc(C(F)(F)F)cc1N1C(C2CCN(c3ccc(F)c(C)c3)CC2)=Nc2c(F)cccc2C1CC(=O)O", "note": "(racemic) [Example 1, {8-Fluoro-2-[1-(4-fluoro-3-methylphenyl)piperidin-4-yl]-3-[2-methoxy-5-(trifluoromethyl)phenyl]-3,4-dihydroquinazolin-4-yl}acetic acid hydrochloride]", "values": [
      {"measurement": "CC50 at 6 days", "setting": "[1]", "result": 24, "unit": "µM"},
      {"measurement": "EC50", "setting": "HCMV; [2]", "result": 0.03, "unit": "µM"},
      {"measurement": "SI HCMV (selectivity index = CC50 (NHDF)/EC50 (HCMV))", "setting": "HCMV", "result": 800}
    ]},
    {"compound": "COc1ccc(C(F)(F)F)cc1N1C(C2CCN(c3ccc(F)c(C)c3)CC2)=Nc2c(F)cccc2C1CC(=O)O", "note": "(stereo not drawn) [Example 2, {8-Fluoro-2-[1-(4-fluoro-3-methylphenyl)piperidin-4-yl]-3-[2-methoxy-5-(trifluoromethyl)phenyl]-3,4-dihydroquinazolin-4-yl}acetic acid hydrochloride]", "values": [
      {"measurement": "CC50 at 6 days", "setting": "[1]", "result": 31, "unit": "µM"},
      {"measurement": "EC50", "setting": "HCMV; [2]", "result": 0.04, "unit": "µM"},
      {"measurement": "SI HCMV (selectivity index = CC50 (NHDF)/EC50 (HCMV))", "setting": "HCMV", "result": 775}
    ]},
    {"compound": "COc1ccc(C(F)(F)F)cc1N1C(C2CCN(c3cccc(C)c3)CC2)=Nc2c(F)cccc2C1CC(=O)O", "note": "(stereo not drawn) [Example 3, {8-Fluoro-3-[2-methoxy-5-(trifluoromethyl)phenyl]-2-[1-(3-methylphenyl)piperidin-4-yl]-3,4dihydroquinazolin-4-yl}acetic acid]", "values": [
      {"measurement": "CC50 at 6 days", "setting": "[1]", "result": 31, "unit": "µM"},
      {"measurement": "EC50", "setting": "HCMV; [3]", "result": 0.1, "unit": "µM"},
      {"measurement": "SI HCMV (selectivity index = CC50 (NHDF)/EC50 (HCMV))", "setting": "HCMV", "result": 310}
    ]},
    {"compound": "COc1ccc(C(F)(F)F)cc1N1C(C2CCN(c3ccc(F)cc3)CC2)=Nc2c(F)cccc2C1CC(=O)O", "note": "(stereo not drawn) [Example 4, {8-Fluoro-2-[1-(4-fluorophenyl)piperidin-4-yl]-3-[2-methoxy-5-(trifluoromethyl)-phenyl]-3,4-dihydroquinazolin-4-yl}acetic acid]", "values": [
      {"measurement": "CC50 at 6 days", "setting": "[1]", "result": 36, "unit": "µM"},
      {"measurement": "EC50", "setting": "HCMV; [3]", "result": 0.15, "unit": "µM"},
      {"measurement": "SI HCMV (selectivity index = CC50 (NHDF)/EC50 (HCMV))", "setting": "HCMV", "result": 237}
    ]}
  ]
}
